Tests used:
WT full length PAICS = WT full length PAICS (Homo sapiens (Human), UniProt P22234); test: Biochemical assay to measure PAICS activity (Transcreener ADP2 FI); settings: SAICAR synthetase reaction, ADP detection, 30 min pre-incubation
Source text: Biochemical Assay to Measure PAICS Activity
The biochemical assay was used to measure PAICS SAICAR synthetase-mediated conversion of CAIR, aspartic acid and ATP to SAICAR, ADP and inorganic phosphate (Pi), post-AIR/CAIR equilibration (see FIG. 3). This was achieved by detecting the ADP generated during the reaction, using Bellbrook Lab's Transcreener ADP^2 FI assay. An increase in the fluorescence intensity is directly proportional to the amount of PAICS activity.
The Transcreener ADP^2 FI assay is a homogeneous competitive displacement fluorescence intensity assay which uses direct immunodetection of ADP. Displacement of the tracer by ADP causes an increase in the fluorescence at excitation 590 nm and emission 617 nm (FIG. 3).
5 μl WT full length PAICS (final assay concentration, fac, 2.5 nM) in basic buffer, added to black, non-binding, 384-well plates (Corning #3575), columns 1 to 22. 5 μl basic buffer was added to columns 23+24 (negative control). PAICS stock at 31.9 μM from the PI's lab (Steve Firestine). Basic buffer contained 50 mM Tris-HCl pH8 and 0.5 mM EDTA, fac.
1 μl compound in 100% DMSO added per well, or 1 μl 100% DMSO to positive controls (columns 1+2) and negative controls (columns 23+24). Final assay top concentration of compound either 1 mM or 30-μM, serially diluted with half-log dilutions across the plate in duplicate (one 10-point concentration response curve across wells 3 to 12, another across 13 to 22). Compounds pre-incubated with PAICS enzyme for 30 mins at RT. 2 μl CAIR added (fac 10 μM) in basic buffer plus 25 mM MgCl2 and 50 mM KHCO3 fac to all wells. CAIR stock 50 mM from Steve Firestine's lab. 1 hr RT incubation for AIR-CAIR equilibration. NB: ˜50% CAIR is decarboxylated during equilibration therefore 5 μM remains for the synthetase reaction.
2 μl ATP/aspartic acid added (fac 30 μM/180 μM) in reaction buffer to all wells. 30 mins RT incubation for appropriate level of ATP turnover. Reaction buffer contained basic buffer plus 10 mM DTT, 0.01% BSA and 0.01% Brij 35, fac.
10 μl ADP detection reagent added to all wells (as per instructions, Transcreener ADP^2 FI kit, BellBrook Labs #3013-10K). Incubation for 1 h at RT to allow antibody equilibration. Fluorescence intensity determined using a Tecan Safire2 (excitation at 590 nm, emission at 617 nm).

[1] = system: LM2 and MDA-MB-231 breast cancer cell lines; test: PAICS 2D cell proliferation assay (CellTiter-Glo viability, 72 h); format: cell-based; settings: Homo sapiens; 72 h incubation; cell line not given
Experimental: PAICS 2D Cell Proliferation Assay
Frozen cryovial stocks of LM2 and MDA-MB-231 breast cancer cell lines were thawed and cultured in 4.5 g/L glucose DMEM (31966-047, Invitrogen) supplemented with 10% Fetal Bovine Serum (10500-064, Invitrogen) until confluent in a T175 flask. Cells were incubated at 37° C. with 5% CO2 in a humidified incubator.
Cells were collected from T175 flasks by washing with PBS (10010-056, Invitrogen) and dissociated using Accutase (A6964, Sigma Aldrich). This was followed by centrifuging (1200 rpm, 5 min) and resuspending the cells in 10 ml of media containing 1% penicillin/streptomycin (15140-122, Invitrogen). Cells were counted by trypan blue exclusion method using an automated cell counter (Cellometer) and diluted to a concentration of 40,000/ml. 1000 cells were then seeded into 384-well white-walled plates (Corning, 3707) in a volume of 25 μl. Plates were Incubated overnight at 37° C. with 5% CO2.
After 24 hours, PAICS compounds were added onto the assay plates using an HP D300 Digital Dispenser (Hewlett Packard). 10 mM stocks were used and dispensed as a 10 point concentration response curve (CRC) ½ log dilution series with a final top concentration of 100 μM. Controls were added onto each plate: positive controls included Staurosporine CRC (100 μM stock dispensed as a 10 point CRC ½ log dilution series with a final top concentration of 1 μM) and PAICS compound MRT00211919 (10 mM stock dispensed as a 10 point CRC ½ log dilution series with a final top concentration of 100 μM); a high control of Staurosporine (0.1 μM (LM2), 0.316 μM (MDA-MB-231) FAC) and a low control of media containing 1% DMSO. A final concentration of 1% DMSO was then added across the plates for normalisation. Following compound addition, assay plates were incubated for 72 hours at 37° C. with 5% CO2.
Day 5—Cytotoxicity and Cell Viability Assays
After 72 h incubation, dead and viable cells were measured in each assay plate. Cytotoxicity was assessed through fluorescent DNA staining using the CellTox™ Green Cytotoxicity Assay kit (G8743, Promega) following the manufacturer's multiplexing protocol. Impaired cell membrane integrity results in the access of dye to stain DNA allowing quantification of dead cells. Cell viability was determined following ATP quantification using the CellTiter-Glo® Luminescent Cell Viability Assay kit (G7572, Promega) following the manufacturer's protocol. ATP released from lysed cells allowed for the generation of a signal proportional to the number of cells present in the well. All endpoint reads were performed using the PheraSTAR Plus (BMG Labtech). Data is expressed as % viable cells and % dead cells against controls (mean±SEM of duplicate curves).

[2] = system: wild type LM2 and CRISPR edited LM2; test: 2D cell proliferation assay, wild type LM2 versus PAICS CRISPR edited LM2; format: cell-based, human; settings: LM2 cells, PAICS CRISPR edited vs wild type
Experimental: Cas9 nuclease-mediated gene editing (Sander and Joung, 2014) was performed using a CRISPR RNA guide sequence ([…], PAM: AGG) targeting exon 3 in the human PAICS gene (accession number: NM_006452).
Stable cell clones were isolated and gene disruption confirmed by DNA sequencing and the absence of PAICS cellular protein expression confirmed by Western blotting.
A small set of compounds were tested against wild type LM2 and CRISPR edited LM2 in the 2D cell proliferation assay to establish to what extent the cellular potency was driven by PAICS mediated effects. The data is shown in Table 2: compounds tested had no effect on CRISPR edited cells, confirming the on-targets effect as being PAICS mediated.

MDA-MB-231 Dlux cells = test: MDA-MB-231-Dlux xenograft model; format: in vivo; settings: oral 25 mg/kg twice daily, 2 weeks, mammary fat pad implant, MF-1 nude mice
Experimental: Evaluation of Compound 69 in MDA-MB-231-Dlux Xenograft Model
Mice were implanted with MDA-MB-231 Dlux cells in the mammary fat pad. Mice were treated with test agent, (Compound 69), standard of care control agent, docetaxel, or vehicle control, once tumours reached a mean volume of ˜100-200 mm^3. Tumours were measured every 2-3 days using electronic calipers and tumour volume estimated using the formula 0.5 (L×W^2). Treatment continued for 2 weeks. Mice were observed and body weight measured daily
MF-1 (HsdOla:MF1-Foxn1^nu)
MDA-MB-231 Dlux (Bioluminescent MDA-MD-231 variant)
Implantation Site: Mammary fat pad (1:1 matrgel/PBS)
Compound 69 (Oral 25 mg/kg twice daily)
Docetaxel (IV 5 mg/kg twice weekly)

Chain of WT full length PAICS (P22234 whole entry): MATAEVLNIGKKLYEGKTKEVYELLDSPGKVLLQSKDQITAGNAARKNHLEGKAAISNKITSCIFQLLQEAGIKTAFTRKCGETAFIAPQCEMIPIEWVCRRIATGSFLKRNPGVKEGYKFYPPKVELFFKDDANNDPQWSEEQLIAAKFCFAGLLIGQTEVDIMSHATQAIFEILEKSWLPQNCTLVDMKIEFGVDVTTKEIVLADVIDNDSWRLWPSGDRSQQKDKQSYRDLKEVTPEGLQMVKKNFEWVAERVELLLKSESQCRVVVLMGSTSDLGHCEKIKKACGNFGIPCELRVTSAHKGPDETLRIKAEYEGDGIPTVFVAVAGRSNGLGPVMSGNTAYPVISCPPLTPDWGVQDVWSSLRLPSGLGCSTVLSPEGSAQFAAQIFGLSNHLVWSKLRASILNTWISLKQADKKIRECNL

| SMILES | IC50 (WT full length PAICS) | EC50 [1] | Potency shift: CRISPR Cell EC50/WT Cell EC50 [2] | growth of primary tumour (MDA-MB-231 Dlux cells) |
| --- | --- | --- | --- | --- |
| CN(C)CCOC(=O)N1CCN(c2ccc(Br)c(NC(=O)c3coc(N)n3)c2)CC1 [Example 23, 2-(Dimethylamino)ethyl 4-(3-(2-aminooxazole-4-carboxamido)-4-bromophenyl)piperazine-1-carboxylate] | 10 to 25 nM | 100 to 250 nM | >500 |  |
| CN(C)CCCOC(=O)N1CCN(c2ccc(Br)c(NC(=O)c3coc(N)n3)c2)CC1 [Example 24, 3-(Dimethylamino)propyl 4-(3-(2-aminooxazole-4-carboxamido)-4-bromophenyl)piperazine-1-carboxylate] | 10 to 25 nM | 100 to 250 nM | >500 |  |
| CNCCS(=O)(=O)N1CCN(c2ccc(Br)c(NC(=O)c3coc(N)n3)c2)CC1 [Example 55, 2-Amino-N-[2-bromo-5-(4-{[2-(methylamino)ethyl]sulfonyl}piperazin-1-yl)phenyl]-1,3-oxazole-4-carboxamide] | < 10 nM | < 100 nM | >500 |  |
| CN(C)CCCS(=O)(=O)N1CCN(c2ccc(Br)c(NC(=O)c3coc(N)n3)c2)CC1 [Example 69, 2-Amino-N-(2-bromo-5-(4-(3-(dimethylamino)propylsulfonyl)piperazin-1-yl)phenyl)oxazole-4-carboxamide] | < 10 nM | < 100 nM | >500 | statistically significant reduction in growth of primary tumour |
| CN(C)CCCS(=O)(=O)N1CCN(c2ccc(Cl)c(NC(=O)c3coc(N)n3)c2)CC1 [Example 68, 2-Amino-N-[2-chloro-5-(4-{[3-(dimethylamino)propyl]sulfonyl}piperazin-1-yl)phenyl]-1,3-oxazole-4-carboxamide] | 10 to 25 nM | 250 to 500 nM |  |  |
| Nc1nc(C(=O)Nc2cc(N3CCN(C(=O)OC4CNC4)CC3)ccc2Cl)co1 [Example 22, Azetidin-3-yl 4-(3-{[(2-amino-1,3-oxazol-4-yl)carbonyl]amino}-4-chlorophenyl)piperazine-1-carboxylate] | > 100 nM | 100 to 250 nM |  |  |
| CN1CCC(OC(=O)N2CCN(c3ccc(Cl)c(NC(=O)c4coc(N)n4)c3)CC2)C1 (stereo not shown) [Example 30, 1-Methylpyrrolidin-3-yl 4-(3-{[(2-amino-1,3-oxazol-4-yl)carbonyl]amino}-4-chlorophenyl)piperazine-1-carboxylate] | > 100 nM | 500 to 1000 nM |  |  |
| CN(C)CCOC(=O)N1CCN(c2ccc(Cl)c(NC(=O)c3coc(N)n3)c2)CC1 [Example 33, 2-(Dimethylamino)ethyl 4-(3-{[(2-amino-1,3-oxazol-4-yl)carbonyl]amino}-4-chlorophenyl)piperazine-1-carboxylate] | 25 to 100 nM | 500 to 1000 nM |  |  |
| CN(C)CCN1CCN(c2ccc(Br)c(NC(=O)c3coc(N)n3)c2)CC1=O [Example 45] | 10 to 25 nM | 250 to 500 nM |  |  |
| CNCCS(=O)(=O)N1CCN(c2ccc(Cl)c(NC(=O)c3coc(N)n3)c2)CC1 [Example 56, 2-Amino-N-[2-chloro-5-(4-{[2-(methylamino)ethyl]sulfonyl}piperazin-1-yl)phenyl]-1,3-oxazole-4-carboxamide] | 10 to 25 nM | 250 to 500 nM |  |  |
| Nc1nc(C(=O)Nc2cc(N3CCN(S(=O)(=O)C4CCNCC4)CC3)ccc2Br)co1 [Example 84] | < 10 nM | 100 to 250 nM |  |  |
| CC(C)NCCCS(=O)(=O)N1CCN(c2ccc(Cl)c(NC(=O)c3coc(N)n3)c2)CC1 [Example 72, 2-Amino-N-[2-chloro-5-(4-{[3-(propan-2-ylamino)propyl]sulfonyl}piperazin-1-yl)phenyl]-1,3-oxazole-4-carboxamide] | < 10 nM | 100 to 250 nM |  |  |
| CN(C)CCS(=O)(=O)N1CCN(c2ccc(Cl)c(NC(=O)c3coc(N)n3)c2)CC1 [Example 57, 2-Amino-N-[2-chloro-5-(4-{[2-(dimethylamino)ethyl]sulfonyl}piperazin-1-yl)phenyl]-1,3-oxazole-4-carboxamide] | 10 to 25 nM | 500 to 1000 nM |  |  |
